What was measured:
L protein = molecular target: T1, L protein (Escherichia coli, UniProt P0A9P0); assay: NADH formation at […] nm; format: biochemical
T1 construct: gene lpdA
T1 sequence (P0A9P0 2-474): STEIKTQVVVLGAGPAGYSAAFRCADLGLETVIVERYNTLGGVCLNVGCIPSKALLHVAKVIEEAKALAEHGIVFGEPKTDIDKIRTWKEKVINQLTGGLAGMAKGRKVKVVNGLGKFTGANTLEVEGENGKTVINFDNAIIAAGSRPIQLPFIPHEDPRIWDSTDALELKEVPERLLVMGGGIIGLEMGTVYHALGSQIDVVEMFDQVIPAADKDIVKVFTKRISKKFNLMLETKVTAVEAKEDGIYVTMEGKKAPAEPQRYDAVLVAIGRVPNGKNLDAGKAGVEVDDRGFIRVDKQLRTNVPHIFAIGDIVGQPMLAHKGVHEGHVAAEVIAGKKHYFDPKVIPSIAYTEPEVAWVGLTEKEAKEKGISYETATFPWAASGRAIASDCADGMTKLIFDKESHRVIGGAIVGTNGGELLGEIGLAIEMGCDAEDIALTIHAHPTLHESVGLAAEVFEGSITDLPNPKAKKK

MsLSD = molecular target: T2, MsLSD (Mycolicibacterium smegmatis, UniProt A0QY48); assay: residual serine dehydratase activity; format: biochemical; conditions: 75% loss printed at 20 mM, reactive inactivator
T2 construct: gene MSMEG_3532; described as PLP-dependent
T2 sequence (A0QY48 1-316): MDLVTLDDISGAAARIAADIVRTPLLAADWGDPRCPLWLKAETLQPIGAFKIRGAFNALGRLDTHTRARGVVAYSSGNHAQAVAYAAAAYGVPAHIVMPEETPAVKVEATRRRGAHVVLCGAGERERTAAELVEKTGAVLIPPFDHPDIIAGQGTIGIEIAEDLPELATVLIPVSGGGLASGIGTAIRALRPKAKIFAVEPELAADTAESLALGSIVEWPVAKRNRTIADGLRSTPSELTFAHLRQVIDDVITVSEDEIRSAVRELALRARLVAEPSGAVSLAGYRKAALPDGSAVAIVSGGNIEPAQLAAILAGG

LpLSD = molecular target: T3, LpLSD (Legionella pneumophila, UniProt Q5ZXE1); conditions: freshly made enzyme
T3 construct: gene sda-2
T3 sequence (Q5ZXE1 1-458): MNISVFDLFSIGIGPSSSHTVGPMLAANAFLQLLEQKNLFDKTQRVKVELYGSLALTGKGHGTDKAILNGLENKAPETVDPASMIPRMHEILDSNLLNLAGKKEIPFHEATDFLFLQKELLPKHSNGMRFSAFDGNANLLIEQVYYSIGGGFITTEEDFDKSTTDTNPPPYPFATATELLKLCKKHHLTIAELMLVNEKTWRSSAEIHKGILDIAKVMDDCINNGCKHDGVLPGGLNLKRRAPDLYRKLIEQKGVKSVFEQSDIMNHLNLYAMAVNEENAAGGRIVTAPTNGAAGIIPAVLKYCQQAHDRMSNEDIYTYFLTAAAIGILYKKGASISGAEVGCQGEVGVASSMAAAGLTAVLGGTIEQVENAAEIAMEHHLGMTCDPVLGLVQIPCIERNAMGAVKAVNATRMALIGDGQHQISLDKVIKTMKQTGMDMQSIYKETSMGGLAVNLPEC

Which “NADH formation at 340 nm” value (L protein) does the source give for `NC(=O)c1ccc[n+]([C@@H]2O[C@H](COP(=O)(O)OP(=O)(O)OC[C@H]3O[C@@H](n4cnc5c(N)ncnc54)[C@H](O)[C@@H]3O)[C@@H](O)[C@H]2O)c1` [NAD^+] here?
Its value is “Hred was then re-oxidized by L-protein in the presence of NAD^+”.

For `C=O` [formaldehyde], which “activity loss at 10 mM formaldehyde” value (MsLSD) is on record?
The value was ~ 50%.

Which “pyruvate formation by HPLC” value (LpLSD) does the source give for `N[C@@H](CO)C(=O)O` [serine] here?
Its value is “The fresh-made LpLSD enzyme showed similar activities”.
